The results in this text go back to patent publication US11739078B2, “Methods of inhibiting kinases” (INSILICO MEDICINE IP LIMITED, priority 2019, dated 2023).

One experiment addresses TNIK (Homo sapiens (Human), UniProt Q9UKE5). Nature of the experiment: TNIK enzymatic assay (radiometric kinase inhibition). It is filed as biochemical. On the procedure: The compounds were studied for function as TNIK inhibitors to generate the data of Table 1. […] (specific activity and concentration as required). The reaction is initiated by the addition of the Mg/ATP mix. After incubation for 40 minutes at room temperature, the reaction is stopped by the addition of phosphoric acid to a concentration of 0.5%.

In another experiment the target is MAP4K4 (h) (Homo sapiens (Human), UniProt O95819). Nature of the experiment: MAP4K4 in vitro kinase assay (radiometric). The note with it: read-out: MAP4K4_IC50. It counts as biochemical. On the procedure: (specific activity and concentration as required). The reaction is initiated by the addition of the Mg/ATP mix. After incubation for 40 minutes at room temperature, the reaction is stopped by the addition of phosphoric acid to a concentration of 0.5%.

The mark [1] stands for this setting: TNIK enzymatic assay, Table 1, read-out: IC50.

pIC50: −log10 of the molar value. Where two headings read alike, the source gives them in different places. Where only a bound is given, the exact number is not on record here.

Chain of TNIK (Q9UKE5 whole entry): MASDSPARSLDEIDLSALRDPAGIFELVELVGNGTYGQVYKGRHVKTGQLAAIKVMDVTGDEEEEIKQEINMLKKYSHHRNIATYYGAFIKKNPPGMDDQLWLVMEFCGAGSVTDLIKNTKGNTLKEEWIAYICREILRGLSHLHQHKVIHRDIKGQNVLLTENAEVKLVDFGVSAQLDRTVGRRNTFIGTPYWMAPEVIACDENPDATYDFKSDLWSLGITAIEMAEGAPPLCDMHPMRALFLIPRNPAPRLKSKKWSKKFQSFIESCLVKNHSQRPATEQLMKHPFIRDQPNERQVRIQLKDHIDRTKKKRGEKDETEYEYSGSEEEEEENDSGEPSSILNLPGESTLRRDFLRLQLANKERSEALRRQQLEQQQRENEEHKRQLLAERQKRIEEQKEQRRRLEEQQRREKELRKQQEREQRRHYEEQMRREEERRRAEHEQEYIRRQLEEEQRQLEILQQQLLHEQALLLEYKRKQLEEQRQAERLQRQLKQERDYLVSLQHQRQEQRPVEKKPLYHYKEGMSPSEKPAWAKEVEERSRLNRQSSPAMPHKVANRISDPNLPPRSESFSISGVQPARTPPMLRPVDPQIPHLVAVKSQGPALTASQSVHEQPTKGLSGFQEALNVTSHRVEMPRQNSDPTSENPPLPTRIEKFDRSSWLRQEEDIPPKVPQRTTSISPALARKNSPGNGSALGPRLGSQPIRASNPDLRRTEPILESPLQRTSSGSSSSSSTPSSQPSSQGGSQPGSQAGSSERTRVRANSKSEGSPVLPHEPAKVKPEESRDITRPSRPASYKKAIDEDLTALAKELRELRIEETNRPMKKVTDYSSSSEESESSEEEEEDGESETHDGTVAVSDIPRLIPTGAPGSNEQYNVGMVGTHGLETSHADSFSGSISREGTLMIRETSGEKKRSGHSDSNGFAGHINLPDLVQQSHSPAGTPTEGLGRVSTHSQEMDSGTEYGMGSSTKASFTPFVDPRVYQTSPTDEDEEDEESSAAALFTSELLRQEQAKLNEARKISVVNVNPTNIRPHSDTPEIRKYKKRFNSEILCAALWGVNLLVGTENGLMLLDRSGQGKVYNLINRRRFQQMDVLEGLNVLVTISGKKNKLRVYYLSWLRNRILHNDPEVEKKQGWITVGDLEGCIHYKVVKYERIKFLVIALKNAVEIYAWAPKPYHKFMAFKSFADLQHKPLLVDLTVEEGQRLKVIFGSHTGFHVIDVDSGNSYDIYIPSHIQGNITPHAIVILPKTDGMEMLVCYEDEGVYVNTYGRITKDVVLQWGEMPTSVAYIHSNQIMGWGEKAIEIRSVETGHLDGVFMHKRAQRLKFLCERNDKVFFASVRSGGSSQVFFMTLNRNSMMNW
Chain of MAP4K4 (h) (O95819 whole entry): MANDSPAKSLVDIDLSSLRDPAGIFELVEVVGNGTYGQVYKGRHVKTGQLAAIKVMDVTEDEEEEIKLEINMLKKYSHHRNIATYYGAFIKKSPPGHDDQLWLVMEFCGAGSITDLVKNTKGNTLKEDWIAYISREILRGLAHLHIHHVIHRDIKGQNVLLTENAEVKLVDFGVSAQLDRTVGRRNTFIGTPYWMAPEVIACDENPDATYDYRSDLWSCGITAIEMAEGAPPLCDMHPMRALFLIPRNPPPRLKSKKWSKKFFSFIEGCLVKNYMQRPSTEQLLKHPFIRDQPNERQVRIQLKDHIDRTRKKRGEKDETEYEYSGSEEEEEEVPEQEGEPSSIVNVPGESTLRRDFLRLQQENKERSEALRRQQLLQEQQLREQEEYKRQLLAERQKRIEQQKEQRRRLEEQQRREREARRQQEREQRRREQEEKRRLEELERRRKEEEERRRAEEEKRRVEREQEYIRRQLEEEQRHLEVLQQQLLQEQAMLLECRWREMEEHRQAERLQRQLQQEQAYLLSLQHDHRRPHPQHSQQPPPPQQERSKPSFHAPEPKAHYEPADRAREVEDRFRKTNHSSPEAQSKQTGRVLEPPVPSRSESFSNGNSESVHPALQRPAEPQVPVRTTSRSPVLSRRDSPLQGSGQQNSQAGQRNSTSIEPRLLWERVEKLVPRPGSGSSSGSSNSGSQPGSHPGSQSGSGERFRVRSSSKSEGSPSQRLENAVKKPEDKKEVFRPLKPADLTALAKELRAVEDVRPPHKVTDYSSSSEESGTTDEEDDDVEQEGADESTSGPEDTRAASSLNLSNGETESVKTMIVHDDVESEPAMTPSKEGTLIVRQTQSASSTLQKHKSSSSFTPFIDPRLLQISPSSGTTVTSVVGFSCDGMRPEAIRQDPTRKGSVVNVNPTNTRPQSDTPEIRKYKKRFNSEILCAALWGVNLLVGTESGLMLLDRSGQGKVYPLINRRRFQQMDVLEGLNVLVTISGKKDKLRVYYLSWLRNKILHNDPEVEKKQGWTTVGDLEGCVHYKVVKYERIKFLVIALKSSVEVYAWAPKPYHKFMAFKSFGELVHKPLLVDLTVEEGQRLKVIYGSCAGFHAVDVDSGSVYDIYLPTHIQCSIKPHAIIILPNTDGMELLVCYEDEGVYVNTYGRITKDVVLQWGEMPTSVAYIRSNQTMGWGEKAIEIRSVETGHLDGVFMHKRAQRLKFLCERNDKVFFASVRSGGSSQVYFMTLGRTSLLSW

Consider `COC(=O)c1ccccc1NC(=O)c1ccc(-c2c(-c3ccc(F)cc3)ncn2C2CCCC2)o1` [Compound 27, methyl 2-(5-(1-cyclopentyl-4-(4-fluorophenyl)-1H-imidazol-5-yl)furan-2-carboxamido)benzoate], for which the pIC50 at TNIK (setting [1]) is above 8.00; on TNIK (read-out: TNIK_IC50), 8.29; at MAP4K4 (h), 7.94.

On to `CCOc1ccc(NC(=O)c2ccc(-c3c(-c4ccc(F)cc4)ncn3C3CCCC3)o2)cc1` [Compound 28, 5-(1-cyclopentyl-4-(4-fluorophenyl)-1H-imidazol-5-yl)-N-(4-ethoxyphenyl)furan-2-carboxamide], for which the pIC50 at TNIK (setting [1]) is 7.43; on TNIK (read-out: TNIK_IC50) it was 7.43; at MAP4K4 (h) it was 7.20.

As to `Cc1ccccc1NC(=O)c1ccc(-c2c(-c3ccc(F)cc3)ncn2C2CCCC2)o1` [Compound 29, 5-(1-cyclopentyl-4-(4-fluorophenyl)-1H-imidazol-5-yl)-N-(o-tolyl)furan-2-carboxamide], the pIC50 was 7.21 at TNIK (setting [1]), 7.21 at TNIK (read-out: TNIK_IC50) and 6.94 at MAP4K4 (h).

Consider `Cc1ccc(NC(=O)c2ccc(-c3c(-c4ccc(F)cc4)ncn3C3CCCC3)o2)cc1Cl` [Compound 30, N-(3-chloro-4-methylphenyl)-5-(1-cyclopentyl-4-(4-fluorophenyl)-1H-imidazol-5-yl)furan-2-carboxamide], for which the pIC50 is 7.02 on TNIK (setting [1]), 7.02 at TNIK (read-out: TNIK_IC50) and 6.05 at MAP4K4 (h).

Take `Cc1ccc(C)c(NC(=O)c2ccc(-c3c(-c4ccc(F)cc4)ncn3C3CCCC3)o2)c1` [Compound 31, 5-(1-cyclopentyl-4-(4-fluorophenyl)-1H-imidazol-5-yl)-N-(2,5-dimethylphenyl)furan-2-carboxamide]: the pIC50 at TNIK (setting [1]) was 6.87; at TNIK (read-out: TNIK_IC50) it was 6.87; at MAP4K4 (h), 6.34.

On to `Cc1ccc(NC(=O)c2ccc(-c3c(-c4ccc(F)cc4)ncn3C3CCCC3)o2)c(C)c1` [Compound 32, 5-(1-cyclopentyl-4-(4-fluorophenyl)-1H-imidazol-5-yl)-N-(2,4-dimethylphenyl)furan-2-carboxamide], for which the pIC50 on TNIK (setting [1]) was 7.92; at TNIK (read-out: TNIK_IC50), 7.92; on MAP4K4 (h) it was 7.01.

Take `CCOC(=O)c1ccc(NC(=O)c2ccc(-c3c(-c4ccc(F)cc4)ncn3C3CCCC3)o2)cc1` [Compound 33, ethyl 4-(5-(1-cyclopentyl-4-(4-fluorophenyl)-1H-imidazol-5-yl)furan-2-carboxamido)benzoate]: the pIC50 at TNIK (setting [1]) was 7.57; at TNIK (read-out: TNIK_IC50) it was 7.57; on MAP4K4 (h) it was 7.06.

Turning to `Cc1cc(C)c(NC(=O)c2ccc(-c3c(-c4ccc(F)cc4)ncn3C3CCCC3)o2)c(C)c1` [Compound 34, 5-(1-cyclopentyl-4-(4-fluorophenyl)-1H-imidazol-5-yl)-N-mesitylfuran-2-carboxamide], the results for the pIC50 on TNIK (setting [1]), on TNIK (read-out: TNIK_IC50) and on MAP4K4 (h) were 6.50, 6.50 and 6.62, respectively.

Consider `CC(=O)c1cccc(NC(=O)c2ccc(-c3c(-c4ccc(F)cc4)ncn3C3CCCC3)o2)c1` [Compound 35, N-(3-acetylphenyl)-5-(1-cyclopentyl-4-(4-fluorophenyl)-1H-imidazol-5-yl)furan-2-carboxamide], for which the pIC50 is 6.82 at TNIK (setting [1]), 6.82 on TNIK (read-out: TNIK_IC50) and 6.56 at MAP4K4 (h).

With `CSc1cccc(NC(=O)c2ccc(-c3c(-c4ccc(F)cc4)ncn3C3CCCC3)o2)c1` [Compound 36, 5-(1-cyclopentyl-4-(4-fluorophenyl)-1H-imidazol-5-yl)-N-(3-(methylthio)phenyl)furan-2-carboxamide], the values for the pIC50 on TNIK (setting [1]), on TNIK (read-out: TNIK_IC50) and on MAP4K4 (h) were 6.96, 6.96 and 6.49, respectively.

Take `CCc1cccc(C)c1NC(=O)c1ccc(-c2c(-c3ccc(F)cc3)ncn2C2CCCC2)o1` [Compound 37, 5-(1-cyclopentyl-4-(4-fluorophenyl)-1H-imidazol-5-yl)-N-(2-ethyl-6-methylphenyl)furan-2-carboxamide]: the pIC50 was 6.05 on TNIK (setting [1]), 6.05 on TNIK (read-out: TNIK_IC50) and below 6.00 at MAP4K4 (h).

For the molecule `CC(C)c1ccc(NC(=O)c2ccc(-c3c(-c4ccc(F)cc4)ncn3C3CCCC3)o2)cc1` [Compound 38, 5-(1-cyclopentyl-4-(4-fluorophenyl)-1H-imidazol-5-yl)-N-(4-isopropylphenyl)furan-2-carboxamide], the values for the pIC50 on TNIK (setting [1]), at TNIK (read-out: TNIK_IC50) and on MAP4K4 (h) were 7.34, 7.34 and 6.78, respectively.

For `CCc1cccc(NC(=O)c2ccc(-c3c(-c4ccc(F)cc4)ncn3C3CCCC3)o2)c1` [Compound 39, 5-(1-cyclopentyl-4-(4-fluorophenyl)-1H-imidazol-5-yl)-N-(3-ethylphenyl)furan-2-carboxamide], the pIC50 was 6.32 on TNIK (setting [1]), 6.32 at TNIK (read-out: TNIK_IC50) and below 6.00 on MAP4K4 (h).

As for `Cc1ccc(NC(=O)c2ccc(-c3c(-c4ccc(F)cc4)ncn3C3CCCC3)o2)cc1F` [Compound 40, 5-(1-cyclopentyl-4-(4-fluorophenyl)-1H-imidazol-5-yl)-N-(3-fluoro-4-methylphenyl)furan-2-carboxamide], the pIC50 at TNIK (setting [1]) was 6.99; at TNIK (read-out: TNIK_IC50), 6.99; at MAP4K4 (h) it was 6.61.

Regarding `O=C(Nc1ccc(F)c(F)c1)c1ccc(-c2c(-c3ccc(F)cc3)ncn2C2CCCC2)o1` [Compound 41, 5-(1-cyclopentyl-4-(4-fluorophenyl)-1H-imidazol-5-yl)-N-(3,4-difluorophenyl)furan-2-carboxamide], the pIC50 on TNIK (setting [1]) was 6.74; at TNIK (read-out: TNIK_IC50), 6.74; on MAP4K4 (h), 6.19.

With `O=C(Nc1ccc(Cl)cc1F)c1ccc(-c2c(-c3ccc(F)cc3)ncn2C2CCCC2)o1` [Compound 42, N-(4-chloro-2-fluorophenyl)-5-(1-cyclopentyl-4-(4-fluorophenyl)-1H-imidazol-5-yl)furan-2-carboxamide], the pIC50 on TNIK (setting [1]) is 7.72; at TNIK (read-out: TNIK_IC50), 7.72; on MAP4K4 (h) it was 7.38.

`Cc1cc(F)ccc1NC(=O)c1ccc(-c2c(-c3ccc(F)cc3)ncn2C2CCCC2)o1` [Compound 43, 5-(1-cyclopentyl-4-(4-fluorophenyl)-1H-imidazol-5-yl)-N-(4-fluoro-2-methylphenyl)furan-2-carboxamide]: the pIC50 on TNIK (setting [1]) is 6.76; at TNIK (read-out: TNIK_IC50) it was 6.76; on MAP4K4 (h), 6.86.

On to `O=C(Nc1ccc(OC(F)(F)F)cc1)c1ccc(-c2c(-c3ccc(F)cc3)ncn2C2CCCC2)o1` [Compound 44, 5-(1-cyclopentyl-4-(4-fluorophenyl)-1H-imidazol-5-yl)-N-(4-(trifluoromethoxy)phenyl)furan-2-carboxamide], for which the pIC50 at TNIK (setting [1]) is 6.28; at TNIK (read-out: TNIK_IC50), 6.28; on MAP4K4 (h), 6.21.

As for `COc1ccc(NC(=O)c2ccc(-c3c(-c4ccc(F)cc4)ncn3C3CCCC3)o2)cc1Cl` [Compound 45, N-(3-chloro-4-methoxyphenyl)-5-(1-cyclopentyl-4-(4-fluorophenyl)-1H-imidazol-5-yl)furan-2-carboxamide], the pIC50 on TNIK (setting [1]), at TNIK (read-out: TNIK_IC50) and at MAP4K4 (h) was 6.78 each time.

In the case of `CC(=O)Nc1ccc(NC(=O)c2ccc(-c3c(-c4ccc(F)cc4)ncn3C3CCCC3)o2)cc1` [Compound 46, N-(4-acetamidophenyl)-5-(1-cyclopentyl-4-(4-fluorophenyl)-1H-imidazol-5-yl)furan-2-carboxamide], the pIC50 on TNIK (setting [1]) was 7.62; at TNIK (read-out: TNIK_IC50), 7.62; at MAP4K4 (h), 7.51.

As for `Cc1ccc(NC(=O)c2ccc(-c3c(-c4ccc(F)cc4)ncn3C3CCCC3)o2)cc1` [Compound 47, 5-(1-cyclopentyl-4-(4-fluorophenyl)-1H-imidazol-5-yl)-N-(p-tolyl)furan-2-carboxamide], the pIC50 at TNIK (setting [1]) is above 8.00; on TNIK (read-out: TNIK_IC50), 7.36; on MAP4K4 (h), 7.29.

On to `Cc1cccc(NC(=O)c2ccc(-c3c(-c4ccc(F)cc4)ncn3C3CCCC3)o2)c1` [Compound 48, 5-(1-cyclopentyl-4-(4-fluorophenyl)-1H-imidazol-5-yl)-N-(m-tolyl)furan-2-carboxamide], for which the pIC50 was 7.40 on TNIK (setting [1]), 7.40 on TNIK (read-out: TNIK_IC50) and 6.79 on MAP4K4 (h).

Consider `O=C(Nc1ccc(Br)cc1)c1ccc(-c2c(-c3ccc(F)cc3)ncn2C2CCCC2)o1` [Compound 49, N-(4-bromophenyl)-5-(1-cyclopentyl-4-(4-fluorophenyl)-1H-imidazol-5-yl)furan-2-carboxamide], for which the pIC50 at TNIK (setting [1]) is 6.82; on TNIK (read-out: TNIK_IC50), 6.82; on MAP4K4 (h), 6.36.

With `COc1ccccc1NC(=O)c1ccc(-c2c(-c3ccc(F)cc3)ncn2C2CCCC2)o1` [Compound 50, 5-(1-cyclopentyl-4-(4-fluorophenyl)-1H-imidazol-5-yl)-N-(2-methoxyphenyl)furan-2-carboxamide], the pIC50 on TNIK (setting [1]) is above 8.00; at TNIK (read-out: TNIK_IC50), 8.41; on MAP4K4 (h), 8.35.

In the case of `CC(=O)c1ccc(NC(=O)c2ccc(-c3c(-c4ccc(F)cc4)ncn3C3CCCCC3)o2)cc1` [Compound 51, N-(4-acetylphenyl)-5-(1-cyclohexyl-4-(4-fluorophenyl)-1H-imidazol-5-yl)furan-2-carboxamide], the results for the pIC50 at TNIK (setting [1]), on TNIK (read-out: TNIK_IC50) and at MAP4K4 (h) were 7.24, 7.24 and 6.90, respectively.

Turning to `COc1ccc(NC(=O)c2ccc(-c3c(-c4ccc(F)cc4)ncn3C3CCCCC3)o2)cc1OC` [Compound 52, 5-(1-cyclohexyl-4-(4-fluorophenyl)-1H-imidazol-5-yl)-N-(3,4-dimethoxyphenyl)furan-2-carboxamide], the pIC50 was 7.22 on TNIK (setting [1]), 7.22 on TNIK (read-out: TNIK_IC50) and 6.98 on MAP4K4 (h).
